Data on three compounds can be found in patent publication US20260216101A1, “Selective Serotonin Receptor Modulators and Methods of Making and Using the Same” (Park City Bio, LLC, priority 2024, published 2026).

For one experiment, the target named is T1, 5-HT2A receptor (Homo sapiens, UniProt P28223).
T1 construct: expressed in transfected cells; host or cells: HEK293T
As to the kind of experiment: 5-HT2 receptor-mediated Gq activation via Gq/γ1 dissociation BRET (5-HT2A). The format is cell-based. Particulars: predicted based on the level of 5-HT2A agonist efficacy. From the text:
(§1) To measure 5-HT2 receptor-mediated Gq activation via Gq/y1 dissociation as measured by Bioluminescence Resonance Energy Transfer (BRET) (McCorvy J D, Wacker D, Wang S, Agegnehu B, Liu J, Lansu K, Tribo A R, Olsen R H J, Che T, Jin J, Roth B L. Structural determinants of 5-HT2B receptor activation and biased agonism. Nat Struct Mol Biol. 2018; 25(9): 787-96), HEK293T cells were sub-cultured in Dulbecco's Modified Eagle Medium (DMEM) supplemented with 10% dialyzed fetal bovine serum (FBS) and were co-transfected in a 1:1:1:1 ratio with Rluc8-fused human Gaq (Gaq-Rluc8), a GFP2-fused to the C-terminus of human Gy1(Gy1-GFP2), human G131, and 5-HT2 receptor using TransiT-2020. After at least 18-24 hours, transfected cells were plated in poly-lysine coated 96-well white clear bottom cell culture plates in DMEM containing 1% dialyzed FBS at a density of 25,000-40,000 cells in 200 μL per well and incubated overnight. The following day, medium was decanted, and cells were washed with 60 μL of drug buffer (1×HBSS, 20 mM HEPES, pH 7.4), then 60 μL of drug buffer was added per well. Cells were pre-incubated at in a humidified atmosphere at 37° C. before receiving drug stimulation. […] Substrate addition occurred 15 minutes before reading and utilized 10 μL of the Rluc substrate coelenterazine 400a for Gq dissociation BRET^2 (Prolume/Nanolight, 5 μM final concentration). Plates were read for luminescence at 400 nm and fluorescent GFP2 emission at 510 nm at 1 second per well using a Mithras LB940 multimode microplate reader (e.g. one provided by Berthold). The BRET ratios of fluorescence/luminescence were calculated per well and were plotted as a function of drug concentration using Graphpad Prism 8 (Graphpad Software Inc., San Diego, CA). Data were normalized to % 5-HT stimulation and analyzed using nonlinear regression “log(agonist) vs. response” to yield Emax and EC50 parameter estimates. […]

The next experiment addresses T2, 5-HT2C receptor (Homo sapiens, UniProt P28335).
T2 construct: expressed in transfected cells; host or cells: HEK293T
T2 sequence (P28335 33-458): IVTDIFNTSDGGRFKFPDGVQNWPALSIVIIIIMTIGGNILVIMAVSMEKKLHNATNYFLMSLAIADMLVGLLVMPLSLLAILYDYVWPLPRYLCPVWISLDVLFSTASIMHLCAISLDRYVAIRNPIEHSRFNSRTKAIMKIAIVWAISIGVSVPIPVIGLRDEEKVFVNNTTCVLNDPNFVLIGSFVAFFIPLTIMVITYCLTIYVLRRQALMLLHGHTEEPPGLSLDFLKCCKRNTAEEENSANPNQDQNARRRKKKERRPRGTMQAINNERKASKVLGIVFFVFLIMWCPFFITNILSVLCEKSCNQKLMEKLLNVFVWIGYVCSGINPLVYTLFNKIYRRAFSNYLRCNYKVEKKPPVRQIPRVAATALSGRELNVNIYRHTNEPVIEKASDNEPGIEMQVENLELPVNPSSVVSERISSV
As to the kind of experiment: 5-HT2 receptor-mediated Gq activation via Gq/γ1 dissociation BRET (5-HT2C). To be noted: primary 5-HT2C signaling via Gq-coupled mechanism compared to β-arrestin. The format is cell-based.
From the text: as §1
In general terms: In BRET a luciferase serves as donor, and the signal depends on an acceptor being close.

T1 sequence (P28223 whole entry): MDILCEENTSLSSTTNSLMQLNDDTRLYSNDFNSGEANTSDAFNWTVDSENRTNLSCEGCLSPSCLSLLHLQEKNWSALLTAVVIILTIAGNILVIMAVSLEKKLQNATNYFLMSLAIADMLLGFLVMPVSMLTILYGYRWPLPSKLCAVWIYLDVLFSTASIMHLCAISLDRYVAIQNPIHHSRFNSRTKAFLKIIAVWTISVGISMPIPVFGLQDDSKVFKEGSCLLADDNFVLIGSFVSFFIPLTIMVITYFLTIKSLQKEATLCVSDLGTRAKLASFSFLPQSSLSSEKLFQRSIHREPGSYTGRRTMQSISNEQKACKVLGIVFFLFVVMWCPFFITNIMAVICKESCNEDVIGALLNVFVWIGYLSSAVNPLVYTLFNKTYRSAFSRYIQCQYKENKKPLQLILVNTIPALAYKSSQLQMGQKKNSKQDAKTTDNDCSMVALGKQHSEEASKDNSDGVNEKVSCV

Take `CNC[C@H]1C[C@@H]1c1cc(F)ccc1OC`: the “Hall or N-Hall? (hallucinogenic or non-hallucinogenic plastogenic effect)” value on 5-HT2A receptor is “N-Hall”. Also, the “5-HT2C Gq signaling bias?” value at 5-HT2C receptor is “Yes”.
In the same order, the values of `CNCC1CC1c1cc(F)ccc1SC` (stereo not drawn) are “N-Hall” and “Yes”.
In the same order, the values of `CSc1ccc(F)cc1C1CC1CN(C)C` (stereo not drawn) are “N-Hall” and “Yes”.
